ChEMBL document CHEMBL1201862, “PubChem BioAssay data set” (2004)
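Results reflect a 48-hour exposure of cells in 96-well plates to compound at five concentrations. The concentration for 50% growth inhibition is given as GI50.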 Calls of active or inactive are those of the source. No stated cut-off is given here; in the data, active = GI50 up to about 1.1 µM and inactive = higher.

Columns and labels:
Assay in all cases: NCI-60 cell line screen, 48 h
A498 = tested on: A498
ACHN = tested on: ACHN
BT-549 = tested on: BT-549
CAKI-1 = tested on: CAKI-1
CCRF-CEM = tested on: CCRF-CEM
COLO 205 = tested on: COLO 205
DLD-1 = tested on: DLD-1
DMS-114 = tested on: DMS-114
DMS-273 = tested on: DMS-273
DU-145 = tested on: DU-145
HCT-116 = tested on: HCT-116
HL-60 = tested on: HL-60
HOP-18 = tested on: HOP-18
HOP-92 = tested on: HOP-92
HT-29 = tested on: HT-29
Hs-578T = tested on: Hs-578T
K562 = tested on: K562
KM12 = tested on: KM12
LOX IMVI = tested on: LOX IMVI
LXFL 529 = tested on: LXFL 529
MCF7 = tested on: MCF7
MDA-MB-231 = tested on: MDA-MB-231
MDA-MB-435 = tested on: MDA-MB-435
MDA-N = tested on: MDA-N
MOLT-4 = tested on: MOLT-4
Malme-3M = tested on: Malme-3M
NCI-H226 = tested on: NCI-H226
NCI-H23 = tested on: NCI-H23
NCI/ADR-RES = tested on: NCI/ADR-RES
OVCAR-5 = tested on: OVCAR-5
OVCAR-8 = tested on: OVCAR-8
PC-3 = tested on: PC-3
RPMI-8226 = tested on: RPMI-8226
SF-268 = tested on: SF-268
SF-295 = tested on: SF-295
SF-539 = tested on: SF-539
SK-MEL-28 = tested on: SK-MEL-28
SK-OV-3 = tested on: SK-OV-3
SNB-19 = tested on: SNB-19
SNB-78 = tested on: SNB-78
SR = tested on: SR
SW-620 = tested on: SW-620
T47D = tested on: T47D
UACC-257 = tested on: UACC-257
UACC-62 = tested on: UACC-62
XF498 = tested on: XF498

COc1cc([C@@H]2c3cc4c(cc3[C@H](O)[C@H]3COC(=O)[C@H]23)OCO4)cc(OC)c1OC [PODOFILOX]
GI50 (A498): < 5 nM (active)
GI50 (ACHN): < 5 nM (active)
GI50 (BT-549): 23.2 nM (active)
GI50 (CAKI-1): 89.7 nM (active)
GI50 (CCRF-CEM): < 5 nM (active)
GI50 (COLO 205): < 5 nM (active)
GI50 (DLD-1): 24.3 nM (active)
GI50 (DMS-114): 10 nM (active)
GI50 (DMS-273): 10 nM (active)
GI50 (DU-145): < 5 nM (active)
GI50 (HCT-116): < 5 nM (active)
GI50 (HL-60): < 5 nM (active)
GI50 (HOP-18): > 100000 nM (inactive)
GI50 (HOP-92): 227 nM (active)
GI50 (HT-29): < 5 nM (active)
GI50 (Hs-578T): < 5 nM (active)
GI50 (K562): < 5 nM (active)
GI50 (KM12): < 5 nM (active)
GI50 (LOX IMVI): < 5 nM (active)
GI50 (LXFL 529): 10 nM (active)
GI50 (MCF7): < 5 nM (active)
GI50 (MDA-MB-231): < 5 nM (active)
GI50 (MDA-MB-435): < 5 nM (active)
GI50 (MDA-N): < 5 nM (active)
GI50 (MOLT-4): < 5 nM (active)
GI50 (Malme-3M): 3010 nM (inactive)
GI50 (NCI-H226): < 5 nM (active)
GI50 (NCI-H23): < 5 nM (active)
GI50 (NCI/ADR-RES): < 5 nM (active)
GI50 (OVCAR-5): 37.5 nM (active)
GI50 (OVCAR-8): < 5 nM (active)
GI50 (PC-3): < 5 nM (active)
GI50 (RPMI-8226): < 5 nM (active)
GI50 (SF-268): < 5 nM (active)
GI50 (SF-295): < 5 nM (active)
GI50 (SF-539): < 5 nM (active)
GI50 (SK-MEL-28): < 5 nM (active)
GI50 (SK-OV-3): < 5 nM (active)
GI50 (SNB-19): < 5 nM (active)
GI50 (SNB-78): 10 nM (active)
GI50 (SR): < 5 nM (active)
GI50 (SW-620): < 5 nM (active)
GI50 (T47D): 500 nM (active)
GI50 (UACC-257): 29900 nM (inactive)
GI50 (UACC-62): < 5 nM (active)
GI50 (XF498): 35.4 nM (active)
